Results on 3 molecules are retold here after patent US20220280515A1, “Ophthalmic Composition for Promoting Tear Secretion” (Rohto Pharmaceutical Co., Ltd., priority 2019, published 2022).

In one test the test system is normal mice. The experiment in a line: Tear secretion promoting action by single ophthalmic administration, phenol red thread, normal mice. The settings on record: 3 μL/eye single instillation, 15 minutes later. Format: in vivo, C57BL/6J mice. The procedure: The tear secretion promoting action of delgocitinib was evaluated using normal mice. Delgocitinib was dissolved and stirred in PBS (Kohjin Bio Co., Ltd.) to prepare delgocitinib solutions at each concentration (0.0125%, 0.05%, and 0.2%). Female C57BL/6J mice (Japan SLC, Inc.) were retained, and the PBS or the delgocitinib solutions at each concentration were instilled at a dose of 3 μL/eye. Fifteen minutes later, a phenol red thread (ZONE-QUICK, AYUMI Pharmaceutical Corporation) was inserted into conjunctival sac on the corner of the eye. Fifteen seconds later, the phenol red thread was pulled out, the length of the wet part of the phenol red thread was measured, and this measured value was used as the tear volume.

The next test concerns normal rabbits. In words: Tear secretion promoting action by single ophthalmic administration, Schirmer's test paper, normal rabbits. The settings on record: 0.05% solution in PBS, 50 μL/eye single instillation, 15 minutes later, Student's t test. Format: in vivo, Japanese white rabbits. The procedure: The tear secretion promoting action of delgocitinib was evaluated using normal rabbits. Delgocitinib was dissolved and stirred in PBS (Kohjin Bio Co., Ltd.) to prepare a 0.05% delgocitinib solution. Male Japanese white rabbits (Oriental Yeast Co., Ltd.) were placed in retention tubes, and the PBS or the 0.05% delgocitinib solution was instilled at a dose of […]. Fifteen minutes later, a Schirmer's test paper was inserted into conjunctival sac on the corner of the eye. One minute later, the test paper was pulled out, and the length of the wet part of the test paper was measured, which was used as a tear volume.

The test system of test [1] is lacrimal gland excised rats. The experiment in a line: Action of ameliorating keratoconjunctival epithelial disorders by repeated ophthalmic administration, fluorescein staining score, lacrimal gland excised rats (dry eye model). Format: in vivo, SD rats. The settings on record: main lacrimal gland excised rats; each concentration (0.0125%, 0.05%, 0.2%), 5 μL/eye four times a day, four weeks; Steel test. The procedure:
The action of ameliorating keratoconjunctival epithelial disorders of delgocitinib was evaluated using rats with lacrimal gland excision used as a dry eye model. Fluorescein sodium salt (Sigma-Aldrich Japan) was dissolved in OTSUKA NORMAL SALINE (Otsuka Pharmaceutical Factory, Inc.) to prepare a 10 mg/mL fluorescein staining solution. Delgocitinib was dissolved and stirred in PBS (Kohjin Bio Co., Ltd.) to prepare delgocitinib solutions at each concentration (0.0125%, 0.05%, and 0.2%). Into male SD rats (Japan SLC, Inc.) whose main lacrimal gland had been excised 1 week earlier, the PBS or the delgocitinib solutions at each concentration were repeatedly instilled four times a day at a dose of 5 μL/eye. Four weeks after the start of ophthalmic instillation, the 10 mg/mL fluorescein staining solution was instilled at a dose of 1 μL/eye. After induction of anesthesia with an ISOFLURANE inhalation solution (Pfizer Japan Inc.), a photograph was taken with a fluorescence microscope (Leica Microsystems). The cornea captured in the photograph was divided into four sections, the staining score of each section was scored on a scale of 0 to 5, and the total score of four sections was used as the corneal epithelial disorder score for the eye.

The subject of a further test is normal rats. In words: Tear secretion promoting action by single ophthalmic administration, Schirmer's test paper, normal rats. Format: in vivo, Sprague-Dawley (SD) rats. The settings on record: 5 μL/eye single instillation (DIQUAS 3%, 3% pilocarpine, 0.05% delgocitinib), 15 minutes later, Mann-whitney U test. The procedure:
(§1) The tear secretion promoting action of delgocitinib was evaluated using normal rats and lacrimal gland excision rats.
(§2) As a test substance, a 0.05% delgocitinib solution (delgocitinib as the active ingredient and sodium chloride, potassium chloride, sodium hydroxide, boric acid, and chlorhexidine gluconate as additives were combined, dissolved and stirred in purified water) was prepared. As a control substance, pilocarpine hydrochloride (Tokyo Chemical Industry Co., Ltd.) was dissolved and stirred in saline (OTSUKA NORMAL SALINE, Otsuka Pharmaceutical Factory, Inc.) to prepare a 3% pilocarpine solution.
(§3) Into normal male Sprague-Dawley (SD) rats (Japan SLC, Inc.) and SD rats whose main and accessory lacrimal glands had been excised 1 week earlier, saline, the DIQUAS ophthalmic solution 3% (Santen Pharmaceutical Co., Ltd.), the 3% pilocarpine solution, or the 0.05% delgocitinib solution was instilled at a dose of 5 μL/eye. Ten minutes later, anesthesia was induced using somnopentyl (Kyoritsu Seiyaku Corporation), and another 5 minutes later, a Schirmer's test paper was inserted into conjunctival sac on the corner of the eye. One minute later, the test paper was pulled out, and the length of the wet part of the test paper was measured, and this measured value was used as a tear volume.

Test [2] concerns lacrimal gland excised rats. In words: Tear volume increasing action by repeated ophthalmic administration, lacrimal gland excised rats (dry eye model). Format: in vivo, Sprague-Dawley (SD) rats. The settings on record: main lacrimal gland excised rats; each concentration (0.0125%, 0.05%, 0.2%), 5 μL/eye four times a day, four weeks; Steel test. As for the experimental part:
The tear secretion volume increasing action of delgocitinib was evaluated using lacrimal gland excised rats as a dry eye model. Delgocitinib was dissolved and stirred in PBS (Kohjin Bio Co., Ltd.) to prepare delgocitinib solutions (0.0125%, 0.05%, and 0.2%) at each concentration. Into normal male Sprague-Dawley (SD) rats (Japan SLC, Inc.) and SD rats whose main lacrimal gland had been excised 1 week earlier, the PBS or the delgocitinib solutions at each concentration were repeatedly instilled four times a day at a dose of 5 μL/eye. Four weeks after the start of ophthalmic instillation, the PBS or the delgocitinib solutions at each concentration were instilled at a dose of 5 μL/eye, anesthesia was induced using somnopentyl (Kyoritsu Seiyaku Corporation) 10 minutes later, and another 5 minutes later, a Schirmer's test paper was inserted into conjunctival sac on the corner of the eye. One minute later, the test paper was pulled out, and the length of the wet part of the test paper was measured, and this measured value was used as a tear volume.

Test [3] deals with lacrimal gland excised rats. The experiment in a line: Tear secretion promoting action by single ophthalmic administration, Schirmer's test paper, lacrimal gland excised rats. Format: in vivo, Sprague-Dawley (SD) rats. The settings on record: rats with main and accessory lacrimal glands excised 1 week earlier; 5 μL/eye single instillation (DIQUAS 3%, 3% pilocarpine, 0.05% delgocitinib); 15 minutes later; Mann-whitney U test. As for the experimental part:
as §1, §2, §3

The next test relates to dry eye model of rats. The settings on record: reported in Non Patent Literature 1; cited from earlier work.

Where a name gives a salt, the structure may show the parent alone.

On to `C[C@H]1CN(C(=O)CC#N)[C@]12CCN(c1ncnc3[nH]ccc13)C2` [delgocitinib, 3-[(3S,4R)-3-methyl-6-(7H-pyrrolo[2,3-d]pyrimidin-4-yl)-1,6-diazaspiro[3.4]octan-1-yl]-3-oxopropanenitrile], for which the “tear volume (length of the wet part of phenol red thread) compared with the PBS group” value is listed as “significant increase” in the test on normal mice (0.05% solution, Dunnett's test); “significant increase” with normal mice (0.2% solution, Dunnett's test); “increased” with normal mice (each concentration (0.0125%, 0.05%, 0.2%)). Also, the “tear volume (length of the wet part of Schirmer's test paper) compared with the PBS group” value (in the test with normal rabbits; in test [2]) was “significantly increased” throughout. In addition, the “corneal epithelial disorder score (fluorescein staining, total of four sections each 0 to 5) compared with the PBS group” value in test [1] was “significantly decreased”. Also, the “tear volume (length of the wet part of Schirmer's test paper) compared with the saline group” value (in the test on normal rats; in test [3]) was “significantly increased” in each case.

Turning to `O=c1ccn([C@@H]2O[C@H](COP(=O)(O)OP(=O)(O)OP(=O)(O)OP(=O)(O)OC[C@H]3O[C@@H](n4ccc(=O)[nH]c4=O)[C@H](O)[C@@H]3O)[C@@H](O)[C@H]2O)c(=O)[nH]1` [diquafosol sodium], in the test on dry eye model of rats, the corneal epithelial disorders result is listed as “ameliorated corneal epithelial disorders” and the secretion of tear result was “promoted secretion of tear”.

As for `CC[C@@H]1C(=O)OC[C@@H]1Cc1cncn1C` [pilocarpine, pilocarpine hydrochloride], the “tear volume (length of the wet part of Schirmer's test paper) compared with the saline group” value in the test on normal rats was “significantly increased”; in test [3], “significantly increased only in the DIQUAS ophthalmic solution 3% group and the 0.05% delgocitinib solution group”.
